From the supplement of paper PMC10307832

Experiments:
Experiment in all cases: relative viability (nuclei count vs DMSO), 5 days (fraction); higher = more cells survive
Ispinesib = compound: Cc1ccc(C(=O)N(CCCN)[C@@H](c2nc3cc(Cl)ccc3c(=O)n2Cc2ccccc2)C(C)C)cc1 [Ispinesib]
Method in brief: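 Cells of lung cancer lines were placed in 1536-well plates and kept overnight at 37 °C. Pinning then delivered five library-drug doses (not always all listed), spaced by √10, onto plates anchored with vehicle, and the cells were left 5 days without changing medium. One step fixed, permeabilised and stained them with Hoechst, and MetaXpress counted nuclei in 4× images. Viability, as a median over plates, is treated-well nuclei divided by vehicle-well nuclei, with acceptance only at control CV below 25% and at least one doubling.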

Linsitinib + Navitoclax = compound: C[C@]1(O)C[C@@H](c2nc(-c3ccc4ccc(-c5ccccc5)nc4c3)c3c(N)nccn32)C1 [Linsitinib] + CC1(C)CCC(c2ccc(Cl)cc2)=C(CN2CCN(c3ccc(C(=O)NS(=O)(=O)c4ccc(N[C@H](CCN5CCOCC5)CSc5ccccc5)c(S(=O)(=O)C(F)(F)F)c4)cc3)CC2)C1 [Navitoclax] (partner 0.5 µM)
Method in brief: (§1)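 Relative viability is defined as nuclei in treated wells over nuclei in vehicle wells. Duplicate plates were run and medians reported. Lung cancer cell lines in 1536-well plates were dosed by pin tool one day after seeding, with one drug or with a fixed anchor-drug dose plus five library-drug doses (not always all listed) in √10 steps, and nuclei were counted after 5 days.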

Linsitinib + Vorinostat = compound: C[C@]1(O)C[C@@H](c2nc(-c3ccc4ccc(-c5ccccc5)nc4c3)c3c(N)nccn32)C1 [Linsitinib] + O=C(CCCCCCC(=O)Nc1ccccc1)NO [Vorinostat] (partner 1 µM)
Method in brief: as §1

Ispinesib + Pemetrexed = compound: Cc1ccc(C(=O)N(CCCN)[C@@H](c2nc3cc(Cl)ccc3c(=O)n2Cc2ccccc2)C(C)C)cc1 [Ispinesib] + Nc1nc2[nH]cc(CCc3ccc(C(=O)N[C@@H](CCC(=O)O)C(=O)O)cc3)c2c(=O)[nH]1 [Pemetrexed] (partner 0.2 µM)
Method in brief: as §1

Row | Cell Line | relative viability (Ispinesib; 0.001 µM) | relative viability (Ispinesib; 0.003162 µM) | relative viability (Ispinesib; 0.01 µM) | relative viability (Ispinesib; 0.03162 µM) | relative viability (Ispinesib; 0.1 µM) | relative viability (Linsitinib + Navitoclax; first compound 0.01 µM) | relative viability (Linsitinib + Navitoclax; first compound 0.03162 µM) | relative viability (Linsitinib + Navitoclax; first compound 0.1 µM) | relative viability (Linsitinib + Navitoclax; first compound 0.3162 µM) | relative viability (Linsitinib + Navitoclax; first compound 1 µM) | relative viability (Linsitinib + Vorinostat; first compound 0.01 µM) | relative viability (Linsitinib + Vorinostat; first compound 0.03162 µM) | relative viability (Linsitinib + Vorinostat; first compound 0.1 µM) | relative viability (Linsitinib + Vorinostat; first compound 0.3162 µM) | relative viability (Linsitinib + Vorinostat; first compound 1 µM) | relative viability (Ispinesib + Pemetrexed; first compound 0.001 µM) | relative viability (Ispinesib + Pemetrexed; first compound 0.003162 µM) | relative viability (Ispinesib + Pemetrexed; first compound 0.01 µM) | relative viability (Ispinesib + Pemetrexed; first compound 0.03162 µM) | relative viability (Ispinesib + Pemetrexed; first compound 0.1 µM)
1 | CAL-12T | 1.05 | 1.13 | 1.1 | 0.664 | 0.18 | 1.2 | 1.2 | 1.28 | 1.05 | 0.991 | 0.69 | 0.744 | 0.727 | 0.524 | 0.569 | 1.31 | 1.24 | 1.41 | 1.12 | 0.235
2 | HCC-827 | 1.08 | 1.07 | 1.02 | 0.929 | 0.876 | 1 | 1.04 | 1.01 |  | 0.974 | 0.207 | 0.829 | 0.799 |  | 0.639 | 0.25 | 0.259 | 0.274 | 0.248 | 0.235
3 | LC-2-ad | 1.04 | 1.1 | 1.07 | 0.536 | 0.175 | 0.368 | 0.406 | 0.486 | 0.339 | 0.368 | 0.719 | 0.693 | 0.692 | 0.487 | 0.443 | 0.288 | 0.259 | 0.262 | 0.23 | 0.149
4 | NCI-H2170 | 1.03 | 1.05 | 1.08 | 0.599 | 0.253 | 0.615 | 0.622 | 0.456 | 0.543 | 0.501 | 0.771 | 0.771 | 0.753 |  | 0.696 | 0.357 | 0.266 | 0.256 | 0.205 | 0.158
5 | SW 1573 | 1.01 | 0.973 | 1.1 | 0.666 | 0.343 | 0.921 | 0.925 | 1 | 0.81 | 0.701 | 0.934 | 0.575 | 0.786 | 0.26 | 0.518 | 0.799 | 0.791 | 0.78 | 0.279 | 0.152
6 | SK-MES-1 | 1.06 | 1.11 | 1.06 | 0.56 | 0.252 | 1.26 | 1.31 | 1.33 | 0.979 | 1.16 | 1.08 | 0.991 | 1.14 | 0.637 | 0.779 | 1.02 | 1.04 | 0.805 | 0.206 | 0.234
7 | NCI-H1793 | 0.977 | 1 | 1.19 | 0.69 | 0.201 | 0.374 | 0.353 | 0.469 | 0.322 | 0.425 | 0.816 | 0.749 | 0.705 | 0.536 | 0.433 | 1.09 | 0.943 | 1.12 | 0.775 | 0.232
8 | LCLC-97TM1 | 1.02 | 0.964 | 1.18 | 0.6 | 0.132 | 0.39 | 0.396 | 0.552 | 0.264 | 0.484 | 0.756 | 0.711 | 0.674 | 0.103 | 0.191 | 0.186 | 0.168 | 0.173 | 0.167 | 0.0653
9 | NCI-H1915 | 0.971 | 1.09 | 1.02 | 0.451 | 0.209 | 0.813 | 0.811 | 0.81 | 0.681 | 0.781 | 0.547 | 0.51 | 0.528 | 0.46 | 0.394 | 0.518 | 0.528 | 0.516 | 0.294 | 0.113
10 | NCI-H2405 | 1.05 | 1.05 | 1.05 | 0.884 | 0.561 | 0.906 | 0.72 | 0.954 | 0.716 | 0.846 | 1.04 | 0.907 | 0.973 | 0.698 | 0.487 | 1.1 | 1.06 | 0.9 | 0.934 | 0.423
11 | NCI-H2347 | 1.03 | 1.1 | 1.13 | 0.897 | 0.87 | 0.731 | 0.915 | 0.717 | 0.533 | 0.754 | 0.677 | 0.583 | 0.591 | 0.444 | 0.57 | 0.47 | 0.432 | 0.433 | 0.41 | 0.425
12 | NCI-H1651 | 1.06 | 1.05 | 1.06 | 0.927 | 0.549 | 0.978 | 1.1 | 0.925 | 0.958 | 0.981 | 0.267 | 0.535 | 0.5 | 0.543 | 0.484 | 0.616 | 0.783 | 0.57 | 0.63 | 0.418
13 | H3255 | 0.999 | 1.15 | 1.02 | 0.701 | 0.335 | 0.615 | 0.504 | 0.499 | 0.433 | 0.395 |  | 0.761 | 0.698 | 0.396 | 0.682 | 0.575 | 0.604 | 0.515 | 0.525 | 0.39
14 | NCI-H460 | 1.03 | 1.03 | 1.14 | 0.935 | 0.0826 | 1.08 | 0.97 | 1.25 | 1.01 | 1.12 | 0.694 | 0.644 | 0.692 |  | 0.601 | 0.0593 | 0.0626 | 0.0626 | 0.0523 | 0.0519
15 | NCI-H2228 | 1.03 | 1 | 1.38 | 0.688 | 0.344 | 0.81 | 1.09 | 0.941 | 0.787 | 0.791 | 0.593 | 0.409 | 0.664 | 0.465 | 0.476 | 0.375 | 0.293 | 0.424 | 0.303 | 0.201
